Data reported in ChEMBL document CHEMBL5360567, “Modulating leishmanial pteridine metabolism machinery via some new coumarin-1,2,3-triazoles: Design, synthesis and computational studies” (Eur J Med Chem, 2023).
pIC50: −log10 of the molar value.

Tests used:
Leishmania major [1] = experiment: Antileishmanial activity against Leishmania major promastigotes incubated for 24 hrs measured by alamar blue staining based fluorescence analysis; assay type: functional, organism-based
Leishmania major [2] = experiment: Antileishmanial activity against Leishmania major amastigotes incubated for 24 hrs measured by alamar blue staining based fluorescence analysis; assay type: functional, organism-based
Leishmania major [3] = experiment: Potency index, ratio of iC50 for miltefosine IC50 to test compound IC50 for antileishmanial activity against Leishmania major promastigotes; assay type: functional
Leishmania major [4] = experiment: Antileishmanial activity against Leishmania major promastigotes incubated for 24 hrs measured by alamar blue staining based fluorescence analysis relative to control; assay type: functional
Leishmania major [5] = experiment: Antileishmanial activity against Leishmania major amastigotes incubated for 24 hrs measured by alamar blue staining based fluorescence analysis relative to control; assay type: functional
Leishmania major [6] = experiment: Reversal of antileishmanial activity against Leishmania major promastigotes assessed as parasite survival at IC50 preincubated with 100 uM folic acid for 1 hr followed by compound incubated for 48 hrs (reference value: 24%); assay type: functional
Leishmania major [7] = experiment: Reversal of antileishmanial activity against Leishmania major promastigotes assessed as parasite survival at IC50 preincubated with 20 uM folinic acid for 1 hr followed by compound incubated for 48 hrs (reference value: 24%); assay type: functional
Leishmania major [8] = experiment: Reversal of antileishmanial activity against Leishmania major promastigotes assessed as parasite survival at IC50 preincubated with 100 uM folinic acid for 1 hr followed by compound incubated for 48 hrs (reference value: 24%); assay type: functional
[9] = Cytotoxicity against green monkey Vero cells incubated for 72 hrs by crystal violet staining analysis; assay type: toxicity, cell-based; conditions: chlorocebus sabaeus
[10] = Selectivity index, ratio of CC50 for green monkey Vero cells to IC50 for antileishmanial activity against Leishmania major amastigotes; assay type: toxicity, cell-based; conditions: read-out: Ratio CC50/IC50
Leishmania major [11] = experiment: Reversal of antileishmanial activity against Leishmania major promastigotes assessed as parasite survival at IC50 preincubated with 20 uM folic acid for 1 hr followed by compound incubated for 48 hrs (reference value: 24%); assay type: functional
Leishmania major [12] = experiment: Reversal of antileishmanial activity against Leishmania major promastigotes assessed as parasite survival at IC50 preincubated with 20 uM folic acid for 1 hr followed by compound incubated for 48 hrs (reference value: 20%); assay type: functional
Leishmania major [13] = experiment: Reversal of antileishmanial activity against Leishmania major promastigotes assessed as parasite survival at IC50 preincubated with 100 uM folic acid for 1 hr followed by compound incubated for 48 hrs (reference value: 20%); assay type: functional
Leishmania major [14] = experiment: Reversal of antileishmanial activity against Leishmania major promastigotes assessed as parasite survival at IC50 preincubated with 20 uM folinic acid for 1 hr followed by compound incubated for 48 hrs (reference value: 20%); assay type: functional
Leishmania major [15] = experiment: Reversal of antileishmanial activity against Leishmania major promastigotes assessed as parasite survival at IC50 preincubated with 100 uM folinic acid for 1 hr followed by compound incubated for 48 hrs (reference value: 20%); assay type: functional
Leishmania major [16] = experiment: Reversal of antileishmanial activity against Leishmania major promastigotes assessed as parasite survival at IC50 preincubated with 100 uM folinic acid for 1 hr followed by compound incubated for 48 hrs (reference value: 22%); assay type: functional
Leishmania major [17] = experiment: Reversal of antileishmanial activity against Leishmania major promastigotes assessed as parasite survival at IC50 preincubated with 20 uM folinic acid for 1 hr followed by compound incubated for 48 hrs (reference value: 22%); assay type: functional
Leishmania major [18] = experiment: Reversal of antileishmanial activity against Leishmania major promastigotes assessed as parasite survival at IC50 preincubated with 100 uM folic acid for 1 hr followed by compound incubated for 48 hrs (reference value: 22%); assay type: functional
Leishmania major [19] = experiment: Reversal of antileishmanial activity against Leishmania major promastigotes assessed as parasite survival at IC50 preincubated with 20 uM folic acid for 1 hr followed by compound incubated for 48 hrs (reference value: 22%); assay type: functional
Leishmania major [20] = experiment: Potency index, ratio of IC50 for miltefosine IC50 to test compound IC50 for antileishmanial activity against Leishmania major amastigotes; assay type: functional
Leishmania tropica [21] = experiment: Antileishmanial activity against Leishmania tropica amastigotes incubated for 24 hrs measured by alamar blue staining based fluorescence analysis; assay type: functional, organism-based
Leishmania tropica [22] = experiment: Antileishmanial activity against Leishmania tropica promastigotes incubated for 24 hrs measured by alamar blue staining based fluorescence analysis; assay type: functional, organism-based

CCCCOc1ccc2cc(/C(C)=N/OCCCCCCn3cc(CN4C(=O)CSC4=O)nn3)c(=O)oc2c1
pIC50 (Leishmania major [1]): 5.55
pIC50 (Leishmania major [2]): 5.41
Ratio IC50 (Leishmania major [3]): 3

CCCCOc1ccc2cc(C(=O)NCCCCCCn3cc(CSC4=NC(=O)CS4)nn3)c(=O)oc2c1
pIC50 (Leishmania major [1]): 5.63
pIC50 (Leishmania major [2]): 5.41
Activity (Leishmania major [4]): 30%
Ratio IC50 (Leishmania major [3]): 3
Activity (Leishmania major [5]): 48%

CCCCOc1ccc2cc(/C(C)=N/OCCCCCCn3cc(CSC4=NC(=O)CS4)nn3)c(=O)oc2c1
pIC50 (Leishmania major [1]): 5.43
pIC50 (Leishmania major [2]): 5.32
Ratio IC50 (Leishmania major [3]): 2

CCCCOc1ccc2cc(C(=O)NCCCCCCn3cc(CN4C(=O)CSC4=O)nn3)c(=O)oc2c1
pIC50 (Leishmania major [1]): 5.64
pIC50 (Leishmania major [2]): 5.41
Activity (Leishmania major [4]): 30%
Ratio IC50 (Leishmania major [3]): 3
Activity (Leishmania major [5]): 48%

CCCCOc1ccc2cc(C(=O)NCCCCCCn3cc(CN4CCCC4)nn3)c(=O)oc2c1
Activity (Leishmania major [6]): 84%
Activity (Leishmania major [7]): 83%
Activity (Leishmania major [8]): 94%
CC50 at 72 h [9]: 252000 nM
pIC50 (Leishmania major [1]): 6.23
pIC50 (Leishmania major [2]): 6.09
Ratio IC50 (Leishmania major [3]): 13
selectivity ratio [10]: 311
Activity (Leishmania major [11]): 76%

CCCCOc1ccc2cc(C(=O)NCCCCCCn3cc(CN4CCOCC4)nn3)c(=O)oc2c1
Activity (Leishmania major [12]): 82%
CC50 at 72 h [9]: 244000 nM
Activity (Leishmania major [13]): 91%
Activity (Leishmania major [14]): 88%
pIC50 (Leishmania major [1]): 6.40
Activity (Leishmania major [15]): 91%
pIC50 (Leishmania major [2]): 6.17
Ratio IC50 (Leishmania major [3]): 20
selectivity ratio [10]: 359

CCCCOc1ccc2cc(/C(C)=N/OCCCCCCn3cc(CN4CCOCC4)nn3)c(=O)oc2c1
pIC50 (Leishmania major [1]): 5.33
pIC50 (Leishmania major [2]): 5.28
Ratio IC50 (Leishmania major [3]): 2

CCCCOc1ccc2cc(/C(C)=N/OCCCCCCn3cc(CN4CCCC4)nn3)c(=O)oc2c1
Activity (Leishmania major [16]): 87%
Activity (Leishmania major [17]): 79%
CC50 at 72 h [9]: 490000 nM
Activity (Leishmania major [18]): 81%
pIC50 (Leishmania major [1]): 6.11
Activity (Leishmania major [19]): 74%
pIC50 (Leishmania major [2]): 6.00
Ratio IC50 (Leishmania major [3]): 10
selectivity ratio [10]: 496
Ratio IC50 (Leishmania major [20]): 8

CCCCOc1ccc2cc(C(=O)NCCCCCCn3cc(CN4CCCCC4)nn3)c(=O)oc2c1
pIC50 (Leishmania major [1]): 5.92
pIC50 (Leishmania major [2]): 5.74
Ratio IC50 (Leishmania major [3]): 7

CCCCOc1ccc2cc(/C(C)=N/OCCCCCCn3cc(CN4CCCCC4)nn3)c(=O)oc2c1
pIC50 (Leishmania major [1]): 5.41
pIC50 (Leishmania major [2]): 5.35
Ratio IC50 (Leishmania major [3]): 2

O=C(N/N=C1\C(=O)N(CC(O)COc2cc(=O)oc3ccccc23)c2ccccc21)c1ccncc1 (stereo not given)
pIC50 (Leishmania tropica [21]): 6.06
pIC50 (Leishmania tropica [22]): 7.00
